According to US12352767B2, “Method of treating cognitive decline associated with neurological diseases based on a decrease in FLT4 expression or activity” (University of Virginia Patent Foundation, priority 2018, dated 2025):

Test system: meningeal immune cells
Experiment: Flow cytometry of meningeal immune cell populations
Type: in vivo
Conditions: 5xFAD mice
Description: Individual meninges were immediately dissected from the mouse's skull cap and digested 15 min at 37° C. with 1.4 U/ml of Collagenase VIII (Sigma Aldrich) and 35 U/ml of DNAse I (Sigma Aldrich) in complete media consisting of DMEM (Gibco) with 2% FBS (Atlas Biologicals), 1% L-Glutamine (Gibco), 1% penicillin/streptomycin (Gibco), 1% Sodium pyruvate (Gibco), 1% non-essential amino-acid (Gibco) and 1.5% Hepes (Gibco). […] Cell viability was determined by using the Zombie Aqua™ Fixable Viability Kit following the manufacturer's instructions (BioLegend). […] Fluorescence data was collected with a Gallios™ Flow Cytometer (Beckman Coulter, Inc.) then analyzed using FlowJo software (Tree Star, Inc.). […] An aliquot of unstained cells of each sample was counted using Cellometer Auto2000 (Nexcelor) to provide accurate counts for each population. […]

For verteporfin [Visudyne], the “number of macrophages in the meninges” value (1.5 months Visudyne/photoconversion vs both control groups) was “significant increase” and the “neutrophils in the meninges” value (Visudyne group (no photoconversion) compared to Visudyne/photoconversion group) was “significant increase”.
